From PubChem BioAssay AID256 (DTP/NCI, 2004)
Toxic doses and inconclusive results are not listed. Rule for the calls: active = survival T/C of 150% or more; inactive = T/C below 125% in these data.

Test system: CD2F1 mice, L1210 leukemia ip, survival T/C
Assay: NCI In Vivo Anticancer Drug Screen. Data for tumor model L1210 Leukemia (intraperitoneal) in CD2F1 (CDF1) mice
Conditions: endpoint: mean survival time, higher = longer survival
Outline: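 Implant tumor; dose compound or vehicle; measure endpoint in both groups; report treated divided by control.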

[1] = dose: 25.0 mg/kg/injection, schedule: Q04DX003 (ip), vehicle: saline

Measured: T/C

COC(=O)C(N)CCCCNc1ccc2c(cc1=O)C(NC(C)=O)CCc1cc(OC)c(OC)c(OC)c1-2 (stereo not drawn)
inactive: dose: 3.1 mg/kg/injection, schedule: Q03HX008 (ip), vehicle: saline 105 % of control | dose: 3.1 mg/kg/injection, schedule: Q03HX016 (ip), vehicle: saline 91 % of control | dose: 3.1 mg/kg/injection, schedule: Q03HX024 (ip), vehicle: saline 96 % of control | dose: 6.3 mg/kg/injection, schedule: Q03HX008 (ip), vehicle: saline 92 % of control | dose: 6.3 mg/kg/injection, schedule: Q03HX016 (ip), vehicle: saline 103 % of control | dose: 6.3 mg/kg/injection, schedule: Q03HX024 (ip), vehicle: saline 102 % of control | dose: 12.5 mg/kg/injection, schedule: Q01DX009 (ip), vehicle: saline 91 % of control | dose: 12.5 mg/kg/injection, schedule: Q01DX009 (sc), vehicle: saline 88 % of control | dose: 12.5 mg/kg/injection, schedule: Q03HX008 (ip), vehicle: saline 97 % of control | dose: 12.5 mg/kg/injection, schedule: Q03HX016 (ip), vehicle: saline 97 % of control | dose: 12.5 mg/kg/injection, schedule: Q03HX024 (ip), vehicle: saline 107 % of control | dose: 25.0 mg/kg/injection, schedule: Q01DX001 (ip), vehicle: saline 102 % of control | dose: 25.0 mg/kg/injection, schedule: Q01DX001 (oral), vehicle: saline 100 % of control | dose: 25.0 mg/kg/injection, schedule: Q01DX001 (sc), vehicle: saline 88 % of control | dose: 25.0 mg/kg/injection, schedule: Q01DX009 (ip), vehicle: saline 100 % of control | dose: 25.0 mg/kg/injection, schedule: Q01DX009 (oral), vehicle: saline 96 % of control | dose: 25.0 mg/kg/injection, schedule: Q01DX009 (sc), vehicle: saline 91 % of control | dose: 25.0 mg/kg/injection, schedule: Q03HX008 (ip), vehicle: saline 105 % of control | dose: 25.0 mg/kg/injection, schedule: Q03HX016 (ip), vehicle: saline 94 % of control | dose: 25.0 mg/kg/injection, schedule: Q03HX024 (ip), vehicle: saline 108 % of control | [1] 100 % of control | dose: 25.0 mg/kg/injection, schedule: Q08DX002 (ip), vehicle: saline 91 % of control | dose: 50.0 mg/kg/injection, schedule: Q01DX001 (ip), vehicle: saline 94 % of control | dose: 50.0 mg/kg/injection, schedule: Q01DX001 (oral), vehicle: saline 94 % of control | dose: 50.0 mg/kg/injection, schedule: Q01DX001 (sc), vehicle: saline 92 % of control | dose: 50.0 mg/kg/injection, schedule: Q01DX009 (ip), vehicle: saline 103 % of control | dose: 50.0 mg/kg/injection, schedule: Q01DX009 (oral), vehicle: saline 91 % of control | dose: 50.0 mg/kg/injection, schedule: Q01DX009 (sc), vehicle: saline 91 % of control | dose: 50.0 mg/kg/injection, schedule: Q03HX008 (ip), vehicle: saline 107 % of control | dose: 50.0 mg/kg/injection, schedule: Q03HX016 (ip), vehicle: saline 97 % of control | dose: 50.0 mg/kg/injection, schedule: Q03HX024 (ip), vehicle: saline 111 % of control | dose: 50.0 mg/kg/injection, schedule: Q04DX003 (ip), vehicle: saline 92 % of control | dose: 50.0 mg/kg/injection, schedule: Q08DX002 (ip), vehicle: saline 103 % of control | dose: 53.0 mg/kg/injection, schedule: Q01DX005 (ip), vehicle: saline 108 % of control | dose: 53.0 mg/kg/injection, schedule: Q01DX009 (ip), vehicle: saline 107 % of control | dose: 53.0 mg/kg/injection, schedule: Q04DX003 (ip), vehicle: saline 87 % of control | dose: 80.0 mg/kg/injection, schedule: Q01DX005 (ip), vehicle: saline 114 % of control | dose: 80.0 mg/kg/injection, schedule: Q01DX009 (ip), vehicle: saline 110 % of control | dose: 80.0 mg/kg/injection, schedule: Q04DX003 (ip), vehicle: saline 87 % of control | dose: 100.0 mg/kg/injection, schedule: Q01DX001 (ip), vehicle: saline with Tween-80 106 % of control | dose: 100.0 mg/kg/injection, schedule: Q01DX001 (ip), vehicle: saline 88 % of control | dose: 100.0 mg/kg/injection, schedule: Q01DX001 (oral), vehicle: saline 96 % of control | dose: 100.0 mg/kg/injection, schedule: Q01DX001 (sc), vehicle: saline 92 % of control | dose: 100.0 mg/kg/injection, schedule: Q01DX009 (ip), vehicle: saline 114 % of control | dose: 100.0 mg/kg/injection, schedule: Q01DX009 (oral), vehicle: saline 91 % of control | dose: 100.0 mg/kg/injection, schedule: Q01DX009 (sc), vehicle: saline 92 % of control | dose: 100.0 mg/kg/injection, schedule: Q04DX002 (ip), vehicle: saline 108 % of control | dose: 100.0 mg/kg/injection, schedule: Q04DX003 (ip), vehicle: saline 91 % of control | dose: 100.0 mg/kg/injection, schedule: Q08DX002 (ip), vehicle: saline 100 % of control | dose: 120.0 mg/kg/injection, schedule: Q01DX005 (ip), vehicle: saline 118 % of control | dose: 120.0 mg/kg/injection, schedule: Q01DX009 (ip), vehicle: saline 114 % of control | dose: 120.0 mg/kg/injection, schedule: Q04DX003 (ip), vehicle: saline 98 % of control | dose: 180.0 mg/kg/injection, schedule: Q01DX005 (ip), vehicle: saline 118 % of control | dose: 180.0 mg/kg/injection, schedule: Q01DX009 (ip), vehicle: saline 105 % of control | dose: 180.0 mg/kg/injection, schedule: Q04DX003 (ip), vehicle: saline 96 % of control | dose: 200.0 mg/kg/injection, schedule: Q01DX001 (ip), vehicle: saline with Tween-80 106 % of control | dose: 200.0 mg/kg/injection, schedule: Q01DX001 (ip), vehicle: saline 97 % of control | dose: 200.0 mg/kg/injection, schedule: Q01DX001 (oral), vehicle: saline 94 % of control | dose: 200.0 mg/kg/injection, schedule: Q01DX001 (sc), vehicle: saline 97 % of control | dose: 200.0 mg/kg/injection, schedule: Q01DX009 (ip), vehicle: saline 118 % of control | dose: 200.0 mg/kg/injection, schedule: Q01DX009 (oral), vehicle: saline 96 % of control | dose: 200.0 mg/kg/injection, schedule: Q01DX009 (sc), vehicle: saline 94 % of control | dose: 200.0 mg/kg/injection, schedule: Q04DX002 (ip), vehicle: saline 104 % of control | dose: 200.0 mg/kg/injection, schedule: Q04DX003 (ip), vehicle: saline 103 % of control | dose: 200.0 mg/kg/injection, schedule: Q08DX002 (ip), vehicle: saline 111 % of control | dose: 270.0 mg/kg/injection, schedule: Q01DX005 (ip), vehicle: saline 90 % of control | dose: 270.0 mg/kg/injection, schedule: Q04DX003 (ip), vehicle: saline 98 % of control | dose: 400.0 mg/kg/injection, schedule: Q01DX001 (ip), vehicle: saline with Tween-80 107 % of control | dose: 400.0 mg/kg/injection, schedule: Q01DX001 (ip), vehicle: saline 108 % of control | dose: 400.0 mg/kg/injection, schedule: Q01DX001 (oral), vehicle: saline 96 % of control | dose: 400.0 mg/kg/injection, schedule: Q01DX001 (sc), vehicle: saline 100 % of control | dose: 400.0 mg/kg/injection, schedule: Q04DX003 (ip), vehicle: saline 113 % of control | dose: 400.0 mg/kg/injection, schedule: Q08DX002 (ip), vehicle: saline 113 % of control | dose: 800.0 mg/kg/injection, schedule: Q01DX001 (oral), vehicle: saline 94 % of control

[Cl][Pt+2][Cl].[NH-]CC1(C[NH-])CCCCC1
inactive: [1] 95 % of control

C=C1C(=C)C2C=CC1C1C3C(c4ccccn4)=NN=C(c4ccccn4)C3C21 (stereo not drawn)
inactive: dose: 25.0 mg/kg/injection, schedule: Q04DX002 (ip), vehicle: saline with Tween-80 95 % of control | dose: 50.0 mg/kg/injection, schedule: Q04DX002 (ip), vehicle: saline with Tween-80 98 % of control | dose: 100.0 mg/kg/injection, schedule: Q04DX002 (ip), vehicle: saline with Tween-80 98 % of control | dose: 200.0 mg/kg/injection, schedule: Q04DX002 (ip), vehicle: saline with Tween-80 88 % of control | dose: 400.0 mg/kg/injection, schedule: Q04DX002 (ip), vehicle: saline with Tween-80 103 % of control

C=CC1CN(CCc2cc3ccccc3[nH]2)CCC1CC(=O)OCC (stereo not drawn)
inactive: dose: 100.0 mg/kg/injection, schedule: Q04DX003 (ip), vehicle: saline with Tween-80 97 % of control | dose: 200.0 mg/kg/injection, schedule: Q04DX003 (ip), vehicle: saline with Tween-80 101 % of control | dose: 400.0 mg/kg/injection, schedule: Q04DX003 (ip), vehicle: saline with Tween-80 94 % of control
